# According to patent US12661385B2, “Modulation of mTORCI activity and autophagy via CIB2-RHEB interaction” (University of Maryland, Baltimore, priority 2018, dated 2026):
# Numbering of substitutions follows the chain as printed.
# T1: TSC1 (Homo sapiens, UniProt Q92574)
# T1 construct: host or cells: COS-7
# T1 sequence (Q92574 1-1164): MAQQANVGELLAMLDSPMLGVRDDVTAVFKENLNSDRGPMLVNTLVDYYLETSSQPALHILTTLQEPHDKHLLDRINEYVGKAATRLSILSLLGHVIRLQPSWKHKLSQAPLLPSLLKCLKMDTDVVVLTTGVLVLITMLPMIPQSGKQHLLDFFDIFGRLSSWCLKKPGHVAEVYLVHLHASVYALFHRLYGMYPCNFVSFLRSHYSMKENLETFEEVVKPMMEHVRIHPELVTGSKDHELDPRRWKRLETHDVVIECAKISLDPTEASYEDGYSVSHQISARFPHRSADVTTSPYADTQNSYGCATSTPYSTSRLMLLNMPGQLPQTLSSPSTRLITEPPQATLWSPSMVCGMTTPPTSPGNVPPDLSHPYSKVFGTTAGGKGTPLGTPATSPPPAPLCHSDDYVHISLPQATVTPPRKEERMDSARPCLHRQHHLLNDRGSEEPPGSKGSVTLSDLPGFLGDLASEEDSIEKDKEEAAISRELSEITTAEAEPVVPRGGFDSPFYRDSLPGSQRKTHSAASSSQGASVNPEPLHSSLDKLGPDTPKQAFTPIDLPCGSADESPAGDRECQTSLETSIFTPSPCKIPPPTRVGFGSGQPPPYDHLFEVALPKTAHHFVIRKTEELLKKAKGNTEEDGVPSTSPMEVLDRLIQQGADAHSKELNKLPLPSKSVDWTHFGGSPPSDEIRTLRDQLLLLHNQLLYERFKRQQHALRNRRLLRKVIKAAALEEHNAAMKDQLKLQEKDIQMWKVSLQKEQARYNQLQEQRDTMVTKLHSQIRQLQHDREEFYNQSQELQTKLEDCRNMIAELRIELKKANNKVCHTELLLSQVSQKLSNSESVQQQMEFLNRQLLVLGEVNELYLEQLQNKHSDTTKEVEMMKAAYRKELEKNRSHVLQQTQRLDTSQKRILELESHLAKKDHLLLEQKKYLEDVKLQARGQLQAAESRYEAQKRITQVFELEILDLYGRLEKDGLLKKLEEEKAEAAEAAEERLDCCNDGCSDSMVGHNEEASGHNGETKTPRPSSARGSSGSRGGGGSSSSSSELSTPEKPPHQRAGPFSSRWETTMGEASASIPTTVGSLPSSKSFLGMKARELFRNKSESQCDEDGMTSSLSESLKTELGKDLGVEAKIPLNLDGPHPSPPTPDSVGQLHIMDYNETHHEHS
# B1: CIB2-eGFP: eGFP-tagged human CIB2 used as bait in the NanoSPD assay (protein)
# chain: MGNKQTIFTEEQLDNYQDCTFFNKKDILKLHSRFYELAPNLVPMDYRKSPIVHVPMSLIIQMPELRENPFKERIVAAFSEDGEGNLTFNDFVDMFSVLCESAPRELKANYAFKIYDFNTDNFICKEDLELTLARLTKSELDEEEVVLVCDKVIEEADLDGDGKLGFADFEDMIAKAPDFLSTFHIRI
# modifications: left off: large carriers
# notes: eGFP-tagged human CIB2 used as bait in the NanoSPD assay
# B2: tdTomato-CIB2: tdTomato tagged CIB2 expressed in HEK293 cells (tdTomato-C1-mCIB2 construct) (protein)
# chain: B1 chain with S32A, A76E, L130M, D141E, E143D
# modifications: left off: large carriers
# How the values were obtained:
# [1] = test system: RPE-specific Cib2^KO mice; test: TEM analysis of the RPE at the conclusion of treatment; format: in vivo, mouse; conditions: 9-cis retinal-treated RPE-specific Cib2^KO mice
# Protocol: FIG. 4. […] Scale bar. 2 μm.
# Sections for EM were prepared as previously described 48. Briefly, hemisected eyecups were rinsed in buffer and postfixed in 2% osmium tetroxide and 1.5% potassium ferrocyanide in dH2O for 2 hr, dehydrated in a graded ethanol series, and embedded in Epon-Araldite (Electron Microscopy Sciences, Hatfield, PA). Semi-thin sections (4 μm) were cut and stained with 1% cresyl violet. Ultra-thin sections (90 nm) were cut on an ultramicrotome (Ultracut E 701704, Reichert-Jung, Buffalo, NY) using a diamond knife (Micro Star Technologies, Inc., Huntsville, TX), collected on copper grids, counterstained with 4% methanolic uranyl acetate (Electron Microscopy Sciences, Hatfield, PA), and outer retinal morphology examined using a transmission electron microscope (TEM; Model 300: Phillips, Eindhoven, The Netherlands). Photomicrographs were captured with a digital camera (15 megapixel digital camera, Scientific Instruments and Applications, Duluth, GA) and Maxim DL Version 5 software (Diffraction Limited, Ottawa, Canada).
# [2] = test system: RPE-specific Cib2^KO mice; conditions: mouse, in vivo
# From the text: For comparison, untreated WT control mice (black squares) are replotted from FIG. 6b. c, Schematic of treatment paradigm in RPE-specific Cib2^KO injected with 9-cis retinal and control mice injected with vehicle. d. […] TEM micrographs for indicated genotype at the end of the treatment paradigm as outlined in c (n=3/genotype).
# To further assess the potential clinical translatability of exogenous retinoids, we tested an extended treatment paradigm following injection of 9-cis retinal in RPE-specific Cib2^KO mice (FIG. 4c). […] To assess medium-term efficacy of exogenous retinoid therapy, we extended the paradigm further by one month.
# Electroretinograms (ERG) were recorded as earlier described^14 with modifications. Mice, overnight dark-adapted, were anesthetized with ketamine-xylazine (100 mg/kg and 10 mg/kg, respectively) and pupils were dilated with 1% Tropicamide. A gold wire lens electrode was placed on the cornea, a platinum reference electrode in the mouth, and a ground electrode on the tail. To assess rod-driven responses, increasing scotopic stimuli were presented sequentially (0.003962233 to 3.147314 cd×s/m2) with 5-60 sec intervals using UTAS BigShot (LKC Technologies, Gaithersburg, MD). At least 3 waveforms per intensity were averaged. For cone function evaluation, photopic responses to a single bright flash (3.15 cd×s/m2) under a steady rod-suppressing field of cd×s/m2. Waves were analyzed using EM for Windows software (LKC Technologies).
# TSC2 = target: T2, TSC2 (Homo sapiens, UniProt P49815); test: NanoSPD (nanoTRAP) interaction assay in COS-7 cells, TSC2; format: binding; conditions: FLAG-tagged TSC2
# T2 construct: host or cells: COS-7
# From the text: (§1) FIG. 14. […] Arrowheads indicate filopodia tip accumulation of hCIB2-eGFP, * indicates no accumulation of indicted constructs in the red channel. c. Representative confocal images (top panel) showing CIB2 (green) interaction with Rheb (red) and Raptor (red) using NanoTRAP assay. […] Arrowheads indicate filopodia tip accumulation of indicated constructs, * indicates no accumulation of indicted construct in the red or far-red channel. Scale bar: 10 μm. d. Quantification for nanoTRAP assay for images shown above. *** p<0.001 by one-way ANOVA. e, Co-IP experiments show interaction between Raptor and CIB2.
# (§2) To reveal the molecular mechanism of CIB2-mediated mTORC1 modulation, we focused on the TSC-Rheb-mTORC1 axis. We performed an interaction screen of specific proteins including TSC1, TSC2, mTORC1-specific subunit Raptor, mTOR kinase, and Rheb. We used a recently-published quantitative interaction assay known as nanoscale pulldown 2.0 (NanoSPD), in which eGFP-nanobody tag fused to the myosin-HMM domain (nanoTRAP) preferentially migrates to the filopodia (Bird et al., Molecular Biology of the Cell 28, 463-475 (2017)). CIB2-eGFP (bait) migrated efficiently to filopodia in COS-7 cells only in the presence of the nanoTRAP. […] Many downstream and upstream targets of mTORC1 regulate its activity via binding to the mTORC1-specific subunit Raptor. […]
# TSC1 = target: T1, TSC1; test: NanoSPD (nanoTRAP) interaction assay in COS-7 cells, TSC1; format: binding; conditions: FLAG-tagged TSC1
# From the text: as §1, §2
# Rheb = Rheb (Homo sapiens, UniProt Q15382); test: Co-IP of tdTomato-CIB2 with HA-GST-Rheb and Rheb variants; format: binding; design: host or cells: HEK293; conditions: HEK293 lysates
# Protocol: FIG. 3. […] Note the stronger interaction between CIB2 and Rheb S20N variant as compared to Q64L variant (GDP vs GTP mimetic, respectively). c, CIB2 preferentially interacts with GDP-loaded Rheb is further confirmed by co-IP experiments of HA-GST-Rheb immobilized on […] and loaded with either GDP or GTPγS, followed by incubation with tdTomato-CIB2 lysate. d, Proposed model of CIB2 function in retinal sensory cells. […] Loss of CIB2 results in reduced autophagy and exacerbated mTORC1 signaling, thus leading to RPE pathology and secondary PR dysfunction. e, f Immunoblots from RPE/choroid lysates from dry AMD or control age-matched donors indicate reduced CIB2 expression, overactive mTORC1 and reduced autophagy, quantified in panel f. Unpaired two-tailed 1 test was used to determine statistical significance. p value of <0.05 (*), <0.01 (**), and <0.001 (***). Please note that one control sample (ψ) is outliner and is highly variant from the rest, Re-quantification, omitting the highly variant control sample, is shown in FIG. 15. g.
# We tested the essentiality of nucleotide binding state of Rheb using co-IP assays. […] Next, we used the Q64L and […] Rheb variants, which mimic the GTP- and GDP-bound state, respectively. […]
# T2 sequence (P49815 whole entry): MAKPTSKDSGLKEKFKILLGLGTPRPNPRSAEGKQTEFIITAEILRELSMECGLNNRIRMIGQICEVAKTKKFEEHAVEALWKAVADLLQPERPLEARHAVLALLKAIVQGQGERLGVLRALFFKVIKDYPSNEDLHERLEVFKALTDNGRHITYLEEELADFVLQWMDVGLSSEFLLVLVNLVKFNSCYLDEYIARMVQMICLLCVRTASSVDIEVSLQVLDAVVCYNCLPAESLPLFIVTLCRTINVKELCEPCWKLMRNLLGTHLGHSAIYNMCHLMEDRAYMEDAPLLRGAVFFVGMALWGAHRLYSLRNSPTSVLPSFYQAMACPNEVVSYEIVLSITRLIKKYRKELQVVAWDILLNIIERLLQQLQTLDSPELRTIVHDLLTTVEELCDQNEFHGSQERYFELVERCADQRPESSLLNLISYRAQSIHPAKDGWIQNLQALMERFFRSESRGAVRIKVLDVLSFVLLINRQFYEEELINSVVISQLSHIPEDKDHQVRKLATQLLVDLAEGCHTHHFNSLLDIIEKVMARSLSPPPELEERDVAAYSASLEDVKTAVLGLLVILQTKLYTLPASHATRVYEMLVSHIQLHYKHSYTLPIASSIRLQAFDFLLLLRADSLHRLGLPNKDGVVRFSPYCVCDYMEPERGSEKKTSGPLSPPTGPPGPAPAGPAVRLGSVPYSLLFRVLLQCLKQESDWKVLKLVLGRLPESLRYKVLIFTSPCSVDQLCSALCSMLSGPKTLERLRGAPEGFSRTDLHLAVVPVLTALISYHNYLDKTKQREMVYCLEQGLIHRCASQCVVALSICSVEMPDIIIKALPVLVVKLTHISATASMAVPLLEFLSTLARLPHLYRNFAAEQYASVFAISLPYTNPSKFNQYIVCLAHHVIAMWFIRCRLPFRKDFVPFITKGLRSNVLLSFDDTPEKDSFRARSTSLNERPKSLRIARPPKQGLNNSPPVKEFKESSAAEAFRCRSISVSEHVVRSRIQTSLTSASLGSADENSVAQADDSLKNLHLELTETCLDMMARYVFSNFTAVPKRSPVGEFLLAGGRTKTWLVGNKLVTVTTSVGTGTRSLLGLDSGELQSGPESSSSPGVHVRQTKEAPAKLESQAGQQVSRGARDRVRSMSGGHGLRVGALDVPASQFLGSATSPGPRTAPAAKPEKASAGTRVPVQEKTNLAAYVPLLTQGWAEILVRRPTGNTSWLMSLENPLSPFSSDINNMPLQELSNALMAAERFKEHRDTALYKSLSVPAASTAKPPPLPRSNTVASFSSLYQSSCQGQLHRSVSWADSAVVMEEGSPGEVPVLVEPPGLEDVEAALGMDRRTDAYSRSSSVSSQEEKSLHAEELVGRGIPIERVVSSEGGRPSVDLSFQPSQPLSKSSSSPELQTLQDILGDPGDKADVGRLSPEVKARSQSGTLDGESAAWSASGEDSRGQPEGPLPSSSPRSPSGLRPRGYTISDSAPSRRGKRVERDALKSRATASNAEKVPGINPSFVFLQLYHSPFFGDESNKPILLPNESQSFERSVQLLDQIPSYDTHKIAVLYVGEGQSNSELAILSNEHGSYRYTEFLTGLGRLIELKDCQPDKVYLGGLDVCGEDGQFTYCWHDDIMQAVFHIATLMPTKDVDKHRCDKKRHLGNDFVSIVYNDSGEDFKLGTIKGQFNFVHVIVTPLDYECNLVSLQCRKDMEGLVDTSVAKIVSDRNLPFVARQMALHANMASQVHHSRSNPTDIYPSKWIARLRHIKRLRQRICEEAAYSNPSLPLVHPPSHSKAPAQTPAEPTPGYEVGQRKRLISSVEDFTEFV
# Chain of Rheb (Q15382 1-181): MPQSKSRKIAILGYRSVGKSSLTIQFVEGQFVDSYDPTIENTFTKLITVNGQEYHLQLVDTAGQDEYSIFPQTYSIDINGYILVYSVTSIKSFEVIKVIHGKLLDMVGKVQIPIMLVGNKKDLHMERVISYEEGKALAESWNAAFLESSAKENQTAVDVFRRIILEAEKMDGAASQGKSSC
molecule,measurement,setting,value
CC1=C(/C=C/C(C)=C\C=C\C(C)=C\C=O)C(C)(C)CCC1 [9-cis retinal],Mice with vacuoles and/or sub-RPE drusen present in the RPE (TEM),[1],3 of 3
same,ERG amplitude differences between groups four weeks post-injection,[2],returned to their baseline levels
same,ERG amplitudes after the treatment paradigm (overall),[2],temporarily but reproducibly improved ERG amplitudes
same,ERG amplitudes four weeks after the 2nd injection,[2],diverged significantly
same,ERG amplitudes two weeks after the 1st injection,[2],indistinguishable from those of vehicle-injected RPE-Cre+ controls
same,ERG amplitudes two weeks after the 2nd injection,[2],no discernable inter-group differences
B1,Co-accumulation with TSC2 (NanoSPD),TSC2,did not show any co-accumulation
same,Co-accumulation with TSC1 (NanoSPD),TSC1,did not show any co-accumulation
B2,Co-immunoprecipitation with HA-GST-Rheb,Rheb,co-immunoprecipitated with HA-GST-Rheb
